Values quoted from earlier work, collected in patent US20220226302A1, “ENHANCEMENT OF CAMP SIGNALING AS A COMBINATION DRUG STRATEGY FOR THE TREATMENT OF DEPRESSION AND RELATED CONDITIONS” (Altos Neuroscience, Inc., priority 2021, published 2022).

What was measured:
[1] = in vivo
depression [2] = conditions: two acute treatment clinical trials, humans
PDE4 [3] = system: PDE4
depression [4] = conditions: patients with depression, small clinical trials
PDE4 [5] = conditions: in vivo

| brain penetration [1] | Compound | antidepressant-like effects in animals (β3 adrenergic receptor) | efficacy in clinical trials for depression (depression [2]) | phenotype of treated mice (PDE4 [3]) | improvement in depression versus TCA medications (depression [4]) | antidepressant effect (PDE4 [5]) | pro-cognitive effect (PDE4 [5]) |
| --- | --- | --- | --- | --- | --- | --- | --- |
| brain penetrant | CCOC(=O)COc1ccc2c(c1)C[C@@H](NC[C@H](O)c1cccc(Cl)c1)CC2 [amibegron] | promising antidepressant-like effects in animals | failed to show efficacy in two acute treatment clinical trials |  |  |  |  |
|  | COc1ccc(C2CNC(=O)C2)cc1OC1CCCC1 (centres unmarked) [rolipram] |  |  | antidepressant and pro-cognitive phenotypes | In none of these studies, however, did rolipram produce a greater improvement in depression than the TCA medications |  |  |
| can also reach the brain | O=C(Nc1c(Cl)cncc1Cl)c1ccc(OC(F)F)c(OCC2CC2)c1 [Roflumilast, roflumilast] |  |  |  |  | no evidence of an antidepressant effect | pro-cognitive effects |
